Measured values taken from ChEMBL document CHEMBL4130363, “Synthesis and pharmacological evaluation of benzamide derivatives as potent and selective sigma-1 protein ligands” (Eur J Med Chem, 2017).
Converted amounts (≈) assume the structure as drawn. Values belong to the molecule of their own block, whether it stands above or below them.

Experiments:
[1] = biological target: T1, Adenosine receptor A1 (Homo sapiens) (UniProt P30542); assay: Antagonist activity at recombinant human adenosine A1 receptor assessed as inhibition of agonist-induced cAMP induction at 10 uM by HTRF assay; format: functional
T1 sequence (whole entry): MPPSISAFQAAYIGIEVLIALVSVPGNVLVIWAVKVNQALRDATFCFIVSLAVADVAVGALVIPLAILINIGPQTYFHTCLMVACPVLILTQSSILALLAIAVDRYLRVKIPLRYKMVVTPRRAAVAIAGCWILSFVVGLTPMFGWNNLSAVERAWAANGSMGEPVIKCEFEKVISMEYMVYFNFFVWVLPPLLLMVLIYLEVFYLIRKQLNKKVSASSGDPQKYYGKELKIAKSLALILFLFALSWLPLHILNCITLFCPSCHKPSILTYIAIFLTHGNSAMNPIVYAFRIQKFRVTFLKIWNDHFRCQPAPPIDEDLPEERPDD

[2] = n-Octanol-PBS buffer distribution coefficient, log D of the compound at pH 7.4; format: physicochemical
[3] = Metabolic stability in human liver microsomes by LC/MS analysis; format: ADME, microsome
[4] = Aqueous solubility of the compound in PBS buffer at pH 7.8; format: physicochemical
[5] = biological target: Sigma intracellular receptor 2 (Homo sapiens, UniProt Q5BJF2); assay: Displacement of [3H]-DTG from S2R in human Jurkat cell membranes after 1 hr in presence of (+)-pentazocine by liquid scintillation counting
[6] = biological target: Sigma non-opioid intracellular receptor 1 (Homo sapiens, UniProt Q99720); assay: Displacement of [3H](+)-pentazocine from S1R in human Jurkat cell membranes after 2 hrs by liquid scintillation counting
Sequence of Sigma non-opioid intracellular receptor 1 (Q99720 whole entry): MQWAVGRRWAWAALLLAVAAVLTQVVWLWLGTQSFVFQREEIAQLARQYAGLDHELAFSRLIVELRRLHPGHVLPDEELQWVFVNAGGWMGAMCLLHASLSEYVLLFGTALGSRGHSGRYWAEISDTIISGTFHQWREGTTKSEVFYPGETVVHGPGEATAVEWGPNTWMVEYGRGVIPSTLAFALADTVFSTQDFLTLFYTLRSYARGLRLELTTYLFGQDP

Sequence of Sigma intracellular receptor 2 (Q5BJF2 whole entry): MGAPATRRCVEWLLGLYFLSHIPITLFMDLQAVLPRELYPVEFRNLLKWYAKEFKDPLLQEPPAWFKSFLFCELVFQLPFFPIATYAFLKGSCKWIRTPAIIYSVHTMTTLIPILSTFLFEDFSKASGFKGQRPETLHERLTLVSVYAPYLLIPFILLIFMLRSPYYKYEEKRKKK

Structure (SMILES): COc1cccc(C(=O)NCCCN(C)Cc2ccccc2)c1
inhibition [1]: -2%

Structure (SMILES): CN(CCCNC(=O)c1ccc(Cl)cc1)CCc1ccccc1
inhibition [1]: -10%

Structure (SMILES): CCCc1ccc(C(=O)NCCCN(C)Cc2ccccc2)cc1
inhibition [1]: -9%

Structure (SMILES): CN(CCNC(=O)c1ccc(Cl)cc1)Cc1ccccc1
Ki [5]: 850 nM
Ki [6]: 3.6 nM

Now from value to molecule:

inhibition [1]: 2%
Structure (SMILES): CN(CCNC(=O)c1ccc(C#N)cc1)Cc1ccccc1

logD [2]: 2.51
Stability [3]: 77%
solubility [4]: 173 µM (≈ 54.8 µg/mL)
Structure (SMILES): CN(CCCNC(=O)c1ccc(Cl)cc1)Cc1ccccc1
